Test: Olanzapine-induced weight gain in a rat model of antipsychotic drug induced obesity (three weeks study)
Format: in vivo, Female Sprague-Dawley (SPRD) rats
Settings: tesofensine 2.0 mg/kg s.c. co-treatment with olanzapine 2.0 mg/kg p.o. from day 15, for 7 days, female SPRD rats
Experimental: Female Sprague-Dawley (SPRD) rats were placed on 10% fat kcal futter. The rats were tagged subcutaneously with a microship in the neck and placed in an automatized food intake monitoring system. […] Co-administration of vehicle or tesofensine continued for 7 days in total. Body weight and food intake was measured on a daily basis, and body weight gain and cumulative food intake was calculated. Data were evaluated using a two-way ANOVA with Bonferroni's post-hoc test (daily body weight gain and food intake) or a one-way ANOVA with Tukey's post-hoc test.

CCOC[C@@H]1[C@@H](c2ccc(Cl)c(Cl)c2)C[C@@H]2CC[C@H]1N2C [tesofensine, (1R,2R,3S,5S)-3-(3,4-dichlorophenyl)-2-(ethoxymethyl)-8-methyl-8-azabicyclo[3.2.1]octane]
effect on hypophagic response to olanzapine (food intake): completely prevented
effect on olanzapine-induced body weight gain: completely prevented
effect on hypophagic response to olanzapine (food intake) (listed as Tesofensine): prevents
effect on olanzapine-induced body weight gain (listed as Tesofensine): prevents

Reference: patent US9457018B2, “Method for combating adverse effects arising from antipsychotic treatment” (Saniona A/S, priority 2008, dated 2016)
